Experimental findings from patent US7772383B2, “Chemical PCR: Compositions for enhancing polynucleotide amplification reactions” (The Trustees of Princeton University, priority 2002, dated 2010) are described below.

What all share (format): biochemical
Assay [1] relates to bovine brain glycolipid transfer protein (GTP) cDNA (660 bp). In words: PCR amplification of GTP cDNA with diol additives, standard cycling. The note with it: for amplification of GTP over annealing temperature gradients (in words): 95° C. denaturing temperature. How it is done:
(§1) Amplification reactions were carried out under the following general conditions. Those skilled in the art will appreciate, however, that to the extent that the conditions (set forth in this application) required for specific experiments described in this example were inconsistent with the following general conditions, limited exceptions to the following general conditions were made The general conditions were as follows: 10 Mm Tris-HCl (Ph 8.8), 50 Mm KCl, 1.5 Mm MgCl2, 0.01% (w/v) gelatin, 0.2 Um primers, 0.06 ng/ul template, 0.2 Mm each Dntp, 0.04 U/ul Taq polymerase. The templates used were bovine brain N-WASP cDNA (1518 bp), a 996 bp segment of human myeloid leukocyte c-jun cDNA, a 511 bp segment of human prostate-specific membrane antigen (PSM) cDNA, and bovine brain glycolipid transfer protein (GTP) cDNA (660 bp). cDNA synthesis was carried out using the FIRST-STRAND® RT-PCR kit from Stratagene on the respective mRNAs purchased from Clontech. All amplification reactions for gene were carried out using a single master batch of cDNA. Taq polymerase and dNTPs were obtained from Stratagene. Primers were obtained from Genosys. Primer melting temperatures (Tms) were calculated using the Genosys oligo calculator program. The sequences of the primers were as follows.
(§2) Polymerase chain reactions for the N-WASP gene were conducted on a ROBOCYCLER® Gradient 40 thermal cycler from Stratagene using 100 ul solutions in 600 ul thin-walled tubes. For expediency, amplification of c-jun, PSM and GTP was carried out in a ROBOCYCLER® Gradient 96 thermal cycler from Stratagene using 50 ul solutions in 200 ul thin-walled tubes. Prior to Taq polymerase addition, a hotstart protocol was carried out that consisted of an initial cycle of 95° C. for 5 minutes (11) to ensure complete first-strand separation, followed by a cycle of 54° C. for 5 minutes. Amplifications were run for 30 cycles. […] Extension was done at 72° C. for periods depending on target length: 2 minutes for N-WASP, 1.5 minutes for c-jun and GTP, and 1 minute for PSM. Annealings were carried out either at fixed concentrations of additives using temperature gradients of 38-56° C. for N-WASP and 44-58° C. for the other targets, or at varying concentrations of additives using fixed temperatures of 41° C. for N-WASP, 50° C. for c-jun and PSM, and 54° C. for GTP.
(§3) Amplification products were analyzed by agarose gel electrophoresis on 0.8% agarose gels in which 20 ul reaction products were loaded with 4 ul loading buffer. Gels were stained with ethidium bromide, visualized on a UV transilluminator (Fisher), and documented by photography. Densitometric quantitation of amplification products was carried out using IMAGE SCANNER® and IMAGE MASTER® software from Amersham Pharmacia. Background correction was done using the software's rolling disc method.
Investigations into the PCR enhancing capabilities of diol cosolvents were carried out using GTP as the primary template. […] The standard protocol for annealing temperature and concentration gradient screening was again followed. […] These cosolvents were thus omitted from further studies. The optimal annealing temperatures for the remaining compounds were: ethylene glycol, 1,2-propanediol, 1,3-propanediol and cis-1,2-cyclopentanediol—58° C.; 1,2-butanediol—54° C.; 1,3-butanediol and 1,4-butanediol—[…]; 2,4-pentanediol, 1,5-pentanediol, 1,6-hexanediol and MPD—56° C.

Assay [2] concerns 511 bp segment of human prostate-specific membrane antigen (PSM) cDNA. In words: PCR amplification of PSM cDNA with diol additives, standard cycling. The note with it: for Specificity / Effective range / Potency: PSM; for Specificity: best specificity (densitometric volume of target as percent of total volume) over the effective range; for Effective range: concentration interval over which densitometric volume of target is at least 50% of maximum; for Potency: normalized maximum densitometric volume of target band: 1,3-Butanediol = 1. How it is done:
as §1, §2, §3
(§4) With PSM, 1,2-propanediol, 1,2-butanediol, 1,3-butanediol, 1,4-butanediol and glycerol were tested; with c-jun, ethylene glycol and 1,3-propanediol were also tested in addition to these compounds. […] The following additive concentrations were tested using these annealing temperatures: 1,2-propanediol—0.5, 0.8, 1.1, 1.4, 1.7 and 2.0M; 1,2-butanediol—0.1, 0.3, 0.5, 0.6, 0.7 and 0.8M; 1,3-butanediol—0.1, 0.3, 0.5, 0.6, 0.9, 1.1, 1.2M; 1,4-butanediol—0.1 to 1.1M in 0.2M intervals; 1,5-pentanediol—0.1-0.6M in 0.1M intervals; glycerol—0.5 to 1.9M in 0.2M intervals, and 2.2M.

The subject of assay [3] is 996 bp segment of human myeloid leukocyte c-jun cDNA. In words: PCR amplification of c-jun cDNA with diol additives, standard cycling. How it is done: as §1, §2, §3, §4
The test system of assay [4] is 1026 by segment of the Thy-1 gene from rat genomic DNA.
Where [5] appears, read: GTP, 95° C. denaturing, 72° C. extension, normalized maximum densitometric volume of target band: 1,5-Pentanediol = 1.
[6] abbreviates: GTP, concentration interval over which densitometric volume of target band is at least 50% of maximum volume.
Setting [7] is: c-jun, concentration interval over which densitometric volume of target band is at least 50% of maximum volume.
[8] abbreviates: c-jun, normalized maximum densitometric volume of target band: 1,5-Pentanediol = 1.

Read-outs that look alike come from different tables or passages of the source.

In the case of `CC(O)CCO` (stereo not drawn) [1,3-Butanediol], the Potency in assay [1] (setting [5]) is 0.85; in assay [2] it was 1.00; in assay [3] (setting [8]), 0.77. Further, the “Effective range” value in assay [1] (setting [6]) was 0.29 to 0.96 M; in assay [2], 0.55 to 1.03 M; in assay [3] (setting [7]) it was 0.40 to 1.12 M. Also, the Specificity in assay [2] worked out at 94%. Besides, the “PSM Potency” value in assay [2] (comparative standard 95/50/72° C., 0.8 M, best result under conventional conditions, normalization reference) is given as 1.00. Moreover, in assay [2] (comparative standard 95/50/72° C., 0.8 M, densitometric volume of target band as percent of total volume), the “PSM Specificity” value is given as 94%. The “amplification yield of Thy-1 genomic DNA (in words)” value in assay [4] is “particularly dramatic improvement”.

Turning to `CC(O)CC(C)(C)O` (stereo not drawn) [2-Methyl-2,4-Pentanediol], the Potency in assay [1] (setting [5]) stood at 0.45. The “Effective range” value in assay [1] (setting [6]) was 0.12 to 0.33 M.

`OCCCO` [1,3-Propanediol]: the Potency was found to be 0.39 in assay [1] (setting [5]) and 0.25 in assay [3] (setting [8]). Besides, the results for the “Effective range” value in assay [1] (setting [6]) and in assay [3] (setting [7]) were 0.31 to 1.18 M and 0.59 to 0.96 M, respectively.

For `O[C@@H]1CCC[C@@H]1O` [cis-1,2-Cyclopentanediol], the Potency in assay [1] (setting [5]) is recorded as 0.91. Besides, the “Effective range” value in assay [1] (setting [6]) was 0.13 to 0.35 M.

With `CC(O)CO` (stereo not drawn) [1,2-Propanediol], the Potency came out at 0.64 in assay [1] (setting [5]), 0.75 in assay [2] and 0.60 in assay [3] (setting [8]). For the same compound, the “Effective range” value in assay [1] (setting [6]) is 0.52 to 1.79 M; in assay [2] it was 0.65 to 1.40 M; in assay [3] (setting [7]), 0.43 to 1.87 M. Moreover, in assay [2], the Specificity was found to be 89%.

In the case of `OCCCCO` [1,4-Butanediol], the entries for the “Effective range” value in assay [1], in assay [2] and in assay [3] were 0.16 to 0.77 M, 0.38 to 0.80 M and 0.35 to 0.91 M, respectively. For the same compound, the Potency was 0.87 in assay [1], 0.65 in assay [2] and 0.82 in assay [3]. Moreover, the Specificity in assay [2] is given as 92%.

On to `CC(O)CC(C)O` (stereo not drawn) [2,4-Pentanediol], for which the Potency in assay [1] (setting [5]) amounted to 0.61. In addition, in assay [1] (setting [6]), the “Effective range” value fell in the range of 0.25 to 0.70 M.

Turning to `CCCCC(O)CO` (stereo not drawn) [1,2-Hexanediol], the “amplification of GTP over annealing temperature gradients (in words)” value in assay [1] (GTP) is reported as “detectable amplification only in very narrow concentration ranges”.

On to `OCCO` [Ethylene glycol], for which, in assay [1], the “Effective range” value was 1.55 to 3.55 M and the Potency came to 0.62. Moreover, in assay [3], the “Effective range” value was 0.71 to 3.10 M and the Potency came out at 0.58. Further, the “amplification yield of Thy-1 genomic DNA (in words)” value in assay [4] is “improve amplification yield”.

Turning to `O[C@@H]1CCC[C@H]1O` (relative stereo) [trans-1,2-Cyclopentanediol], the “amplification of GTP over annealing temperature gradients (in words)” value in assay [1] (GTP) is “inhibitory at all concentrations”.

On to `CCCC(O)CO` (stereo not drawn) [1,2-Pentanediol], for which the “amplification of GTP over annealing temperature gradients (in words)” value in assay [1] (GTP) is “detectable amplification only in very narrow concentration ranges”.
